Molecular target: T1, interaction between VCAM-1 and VLA-4 (Homo sapiens, UniProt P05556+P13612)
T1 construct: supplied in their natural form as surface molecules on human U937 cells; host or cells: U937 cells carry endogenous VLA-4; The partner hVCAM-1(1-3)-IgG was made in house in transfected COS cells (ATCC CRL1651) and used as culture supernatant
Experiment: U937/VCAM-1 cell adhesion test (adhesion of U937 cells to hVCAM-1(1-3)-IgG)
Assay type: cell-based
Conditions: concentration leading to 50% inhibition of adhesion of human U937 cells (ATCC CRL 1593) to hVCAM-1(1-3)-IgG
Text: The test method used for the activity of the compounds of the formula I on the interaction between VCAM-1 and VLA-4 is the assay described below which is specific for this interaction. The cellular binding components, i.e., the VLA-4 integrins, are supplied in their natural form as surface molecules on human U937 cells (ATCC CRL 1593). which belong to the leucocytes group. The specific binding components used are genetically engineered recombinant soluble fusion proteins, consisting of the extracytoplasmatic domain of human VCAM-1 and the constant region of a human immunoglobulin of the subclass IgG1.
Assay for the Measurement of the Adhesion of U937 Cells (ATCC CRL 1593) to hVCAM-1(1-3)-IgG
1. Preparation of Human VCAM-1 (1-3)-IgG and Human CD4-IgG
A genetic construct for the expression of the extracellular domain of human VCAM-1, associated with the genetic sequence of the heavy chain of human immunoglobulin IgG1 (hinge, CH2 and CH3 regions), from Dr. Brian Seed, Massachusetts General Hospital. Boston, USA was employed (cf. Damle and Aruffo, Proc. Natl. Acad. Sci. USA 1991, 88, 6403-6407). The soluble fusion protein hVCAM-1(1-3)-IgG contained the three amino-terminal extracellular immunoglobulin-like domains of human VCAM-1 (Damle and Aruffo, Proc. Natl. Acad. Sci. USA 1991, 88, 6403-6407). CD4-IgG (Zettimeissl et al., DNA and Cell Biology 1990, 9, 347) served as a fusion protein for negative controls. The recombinant proteins were expressed as soluble proteins after DEAE/dextran-mediated DNA transfection in COS cells (ATCC CRL1651) according to standard procedures (Ausubel et al., Current Protocols in Molecular Biology, John Wiley & Sons, Inc., 1994).
2. Assay for the Measurement of the Adhesion of U937 Cells to hVCAM-1 (1-3)-IgG
2.1 96-well microtiter test plates (Nunc Maxisorb) were incubated at room temperature for 1 hour with 100 μl/well of a goat-anti-human IgG antibody solution (10 μg/ml in 50 mM tris, pH 9.5). After removal of the antibody solution, washing was carried out once with PBS.
2.2 150 μl/well of a blocking buffer (1% BSA in PBS) were incubated on the plates at room temperature for 0.5 hour. After removal of the blocking buffer, washing was carried out once with PBS.
2.3 100 μl per well of a cell culture supernatant of transfected COS cells were incubated on the plates at room temperature for 1.5 hours. The COS cells were transfected with a plasmid which codes for the three N-terminal immunoglobulin-like domains of VCAM-1, coupled to the Fc part of human IgG1 (hVCAM-1 (1-3)-IgG). The content of hVCAM-1 (1-3)-IgG was about 0.5-1 μg/ml. After removal of the culture supernatant, washing was carried out once with PBS.
2.4 The plates were incubated at room temperature for 20 minutes with 100 μl/well of Fc receptor blocking buffer (1 mg/ml of γ-globulin, 100 mM NaCl, 100 μM MgCl2, 100 μM MnCl2, 100 μM CaCl2, 1 mg/ml of BSA in 50 mM HEPES, pH 7.5). After removal of the Fc receptor blocking buffer, washing was carried out once with PBS.
2.5 20 μl of binding buffer (100 mM NaCl, 100 μM MgCl2, 100 μM MnCl2, 100 μM CaCl2, 1 mg/ml of BSA in 50 mM HEPES, pH 7.5) were initially introduced, and the substances to be tested were added in 10 μl of binding buffer and incubated for 20 minutes. The controls used were antibodies against VCAM-1 (BBT, No. BBA6) and against VLA-4 (immunotech, No. 0764).
2.6 U937 cells were incubated in Fc receptor blocking buffer for 20 minutes and then added by pipette in a concentration of 1×10^6/ml and in an amount of 100 μl per well ([…]).
2.7 The plates were slowly immersed at an angle of 45° in stop buffer (100 mM NaCl, 100 μM MgCl2, 100 μM MnCl2, 100 μM CaCl2 in 25 mM tris, pH 7.5) and shaken off. The process was repeated.
2.8 50 μl/well of a dye solution (16.7 μg/ml of Hoechst Dye 33258, 4% formaldehyde, 0.5% triton X-100 in PBS) were then incubated on the plates for 15 minutes. […]

T1 sequence (P13612 34-1032): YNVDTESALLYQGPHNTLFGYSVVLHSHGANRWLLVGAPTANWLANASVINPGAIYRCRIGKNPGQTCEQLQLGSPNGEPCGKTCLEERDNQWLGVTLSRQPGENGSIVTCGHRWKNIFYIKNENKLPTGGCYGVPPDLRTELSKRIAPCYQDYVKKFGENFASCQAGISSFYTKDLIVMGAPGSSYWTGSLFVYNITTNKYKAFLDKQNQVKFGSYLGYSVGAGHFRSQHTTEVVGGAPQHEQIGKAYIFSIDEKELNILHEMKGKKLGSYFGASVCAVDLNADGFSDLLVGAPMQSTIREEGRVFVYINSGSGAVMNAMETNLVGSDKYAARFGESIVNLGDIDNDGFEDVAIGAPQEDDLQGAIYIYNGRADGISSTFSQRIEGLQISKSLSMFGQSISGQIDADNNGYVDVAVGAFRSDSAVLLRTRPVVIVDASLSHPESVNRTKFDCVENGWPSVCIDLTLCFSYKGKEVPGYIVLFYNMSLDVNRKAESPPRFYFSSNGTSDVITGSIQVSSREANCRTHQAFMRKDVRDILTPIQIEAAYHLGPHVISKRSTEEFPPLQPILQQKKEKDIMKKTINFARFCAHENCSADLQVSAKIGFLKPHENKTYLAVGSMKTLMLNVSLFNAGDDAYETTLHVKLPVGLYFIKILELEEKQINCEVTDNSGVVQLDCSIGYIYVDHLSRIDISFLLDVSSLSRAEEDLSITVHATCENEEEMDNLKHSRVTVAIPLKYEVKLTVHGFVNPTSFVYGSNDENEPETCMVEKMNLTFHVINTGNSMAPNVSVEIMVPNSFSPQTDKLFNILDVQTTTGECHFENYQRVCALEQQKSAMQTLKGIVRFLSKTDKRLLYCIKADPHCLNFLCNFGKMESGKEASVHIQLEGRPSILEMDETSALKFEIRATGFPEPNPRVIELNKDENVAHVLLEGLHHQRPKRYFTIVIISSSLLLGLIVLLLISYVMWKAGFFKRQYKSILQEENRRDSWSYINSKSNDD
T1 sequence (P05556 21-798): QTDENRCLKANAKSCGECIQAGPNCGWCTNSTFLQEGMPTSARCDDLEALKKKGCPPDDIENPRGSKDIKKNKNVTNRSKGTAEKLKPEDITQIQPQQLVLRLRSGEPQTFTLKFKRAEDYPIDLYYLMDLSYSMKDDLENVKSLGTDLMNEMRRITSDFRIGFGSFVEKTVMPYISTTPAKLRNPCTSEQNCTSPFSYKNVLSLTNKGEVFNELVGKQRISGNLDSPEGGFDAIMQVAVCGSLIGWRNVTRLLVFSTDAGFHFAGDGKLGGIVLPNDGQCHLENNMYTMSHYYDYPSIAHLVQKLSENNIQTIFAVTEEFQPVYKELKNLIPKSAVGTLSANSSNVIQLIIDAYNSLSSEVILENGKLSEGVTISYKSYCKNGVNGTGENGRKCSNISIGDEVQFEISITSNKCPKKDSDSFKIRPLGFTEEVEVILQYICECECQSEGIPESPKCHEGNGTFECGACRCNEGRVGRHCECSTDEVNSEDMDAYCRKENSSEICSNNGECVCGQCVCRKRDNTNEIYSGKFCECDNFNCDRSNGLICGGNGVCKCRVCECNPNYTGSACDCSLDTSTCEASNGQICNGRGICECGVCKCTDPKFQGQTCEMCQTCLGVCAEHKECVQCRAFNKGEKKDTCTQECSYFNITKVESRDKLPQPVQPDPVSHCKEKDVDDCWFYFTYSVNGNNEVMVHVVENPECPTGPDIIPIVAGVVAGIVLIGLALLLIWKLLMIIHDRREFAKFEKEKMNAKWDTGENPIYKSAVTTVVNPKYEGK

Row | SMILES | IC50 [nM]
1 | Cc1ccccc1NC(=O)Nc1ccc(CN2CC(=O)N(CC(=O)N[C@@H](CC(=O)O)c3ccccc3)C2=O)cc1 [Example 29, (S)3-(2-(3-(4-(3-(2-Methylphenyl)ureido)benzyl)-2,5-dioxoimidazolidin-1-yl)-acetylamino)-3-phenylpropionic Acid] | 890
2 | COC(=O)c1ccccc1NC(=O)Nc1ccc(CN2C(=O)N(CC(=O)N[C@H](C)CC(=O)O)C(=O)C2(C)C)cc1 [Example 38] | 400
3 | Cc1cccc(NC(=O)Nc2ccc(CN3C(=O)N(CC(=O)NC(C)CC(=O)O)C(=O)C3(C)C)cc2)c1C (stereo not shown) [Example 34] | 490
4 | CC(C)C[C@@H](C(=O)N[C@@H](CC(=O)O)C(=O)N[C@H](C(=O)O)c1ccccc1)N1C(=O)N(Cc2ccc(NC(=O)NCc3ccccc3)cc2)C(C)(C)C1=O [Example 58] | 450
5 | Cc1ccccc1NC(=O)Nc1ccc(CN2CC(=O)N(CC(=O)N[C@H](C)CC(=O)O)C2=O)cc1 [Example 26, (R)-3-(2-(3-(4-(3-(2-Methylphenyl)ureido)benzyl)-2,5-dioxoimidazolidin-1-yl)-acetylamino)-3-methylpropionic Acid] | 2900
6 | Cc1ccccc1NC(=O)Nc1ccc(CN2C(=O)N(CC(=O)NC(C)(C)CC(=O)O)C(=O)C2(C)C)cc1 [Example 91, 3-(2-(4,4-Dimethyl-3-(4-(3-(2-methylphenyl)ureido)benzyl)-2,5-dioxoimidazolidin-1-yl)acetylamino)-3,3-dimethylpropionic Acid] | 210
7 | Cc1ccccc1NC(=O)Nc1ccc(CN2C(=O)N(CC(=O)N(C)[C@@H](CC(=O)O)C(=O)O)C(=O)C2(C)C)cc1 [Example 28, (2-(4,4-Dimethyl-3-(4-(3-(2-methylphenyl)ureido)benzyl)-2,5-dioxoimidazolidin-1-yl)-acetyl)-N-methyl-L-aspartic Acid] | 110
8 | C[C@H](CC(=O)O)NC(=O)[C@H](CC1CC1)N1C(=O)N(Cc2ccc(NC(=O)Nc3ccccc3)cc2)C(C)(C)C1=O [Example 92, (R)-3-((S)-2-(4,4-Dimethyl-3-(4-(3-phenylureido)benzyl)-2,5-dioxoimidazolidin-1-yl)-2-cyclopropylmethylacetylamino)-3-methylpropionic Acid] | 40
9 | Cc1ccccc1NC(=O)Nc1ccc(CN2C(=O)N([C@@H](CC(C)C)C(=O)N[C@@H](CC(=O)O)c3c(F)c(F)c(F)c(F)c3F)C(=O)C2(C)C)cc1 [Example 187] | 25
10 | Cc1ccccc1NC(=O)Nc1ccc(CN2C(=O)N([C@@H](C)C(=O)N[C@H](C)CC(=O)O)C(=O)C2(C)C)cc1 [Example 90, (R)-3-((S)-2-(4,4-Dimethyl-3-(4-(3-(2-methylphenyl)ureido)benzyl)-2,5-dioxoimidazolidin-1-yl)-2-methyl-acetylamino)-3-methylpropionic Acid] | 82
11 | Cc1ccccc1NC(=O)Nc1ccc(CN2CC(=O)N(CC(=O)N(C)[C@@H](CC(=O)O)C(=O)NC3C4CC5CC(C4)CC3C5)C2=O)cc1 (stereo partly shown) [Example 20] | 160
12 | Cc1ccccc1NC(=O)Nc1ccc(CN2C(=O)N(C(CC(C)C)C(=O)N[C@@H](CC(=O)O)C(=O)N[C@H](C(=O)OC(C)(C)C)c3ccccc3)C(=O)C2(C)c2ccccc2)cc1 (mixture of isomers) [Example 219] | 175
13 | CC(C)C[C@@H](C(=O)N[C@@H](CC(=O)O)C(=O)N[C@H](C(=O)O)c1ccccc1)N1C(=O)N(Cc2ccc(NC(=O)Nc3ccccc3C(F)(F)F)cc2)C(C)(C)C1=O [Example 68] | 300

Molecules with a lower IC50, results first:

Row | IC50 [nM] | SMILES
14 | 5 | CC(C)C[C@@H](C(=O)N[C@@H](CC(=O)O)c1ccc2c(c1)OCO2)N1C(=O)N(Cc2ccc(NC(=O)Nc3ccccc3)cc2)C(C)(C)C1=O [Example 5, (S)-3-((S)-2-(4,4-Dimethyl-3-(4-(3-phenylureido)benzyl)-2,5-dioxoimidazolidin-1-yl)-2-(2-methylpropyl)acetylamino)-3-(3,4-methylenedioxyphenyl)propionic Acid]
15 | 4 | Cc1ccccc1NC(=O)Nc1ccc(CN2C(=O)N([C@@H](CC(C)C)C(=O)N[C@@H](CC(=O)O)c3ccc4ccccc4c3)C(=O)C2(C)C)cc1 [Example 184]
16 | 22 | Cc1ccccc1NC(=O)Nc1ccc(CN2C(=O)N(CC(=O)NC[C@H](NC(=O)OCc3ccccc3)C(=O)O)C(=O)C2(C)C)cc1 [Example 94]
17 | 17 | Cc1ccccc1NC(=O)Nc1ccc(CN2C(=O)N(C(CC(C)C)C(=O)NC(CC(=O)O)c3ccccc3F)C(=O)C2(C)c2ccccc2)cc1 (stereo not shown) [Example 214]
18 | 11 | Cc1ccccc1NC(=O)Nc1ccc(CN2C(=O)N([C@@H](CC(C)C)C(=O)N[C@@H](CC(=O)O)c3ccc(-c4ccccc4)cc3)C(=O)C2(C)C)cc1 [Example 185]
19 | 5 | CC(C)C[C@@H](C(=O)N[C@@H](CC(=O)O)C(=O)N[C@H](C(=O)O)c1ccccc1)N1C(=O)N(Cc2ccc(NC(=O)Nc3ccccc3Cl)cc2)C(C)(C)C1=O [Example 62]
20 | 1.5 | Cc1ccccc1NC(=O)Nc1ccc(CN2C(=O)N([C@@H](CC(C)C)C(=O)N[C@@H](CC(=O)O)c3ccccc3)C(=O)C2(C)C)cc1 [Example 17, (S)-3-((S)-2-(4,4-Dimethyl-3-(4-(3-(2-methylphenyl)ureido)benzyl)-2,5-dioxoimidazolidin-1-yl)-2-(2-methylpropyl)acetylamino)-3-phenylpropionic Acid]
21 | 20 | Cc1ccccc1NC(=O)Nc1ccc(CN2C(=O)N(CC(=O)N[C@H](C)CC(=O)O)C(=O)C2(C)C)cc1 [Example 9, (R)-3-(2-(4,4-Dimethyl-3-(4-(3-(2-methylphenyl)ureido)benzyl)-2,5-dioxoimidazolidin-1-yl)acetylamino)-3-methylpropionic Acid]
22 | 4 | CC(C)CC(C(=O)N[C@@H](CC(=O)O)C(=O)N[C@H](C(=O)O)c1ccccc1)N1C(=O)N(Cc2ccc(NC(=O)Nc3ccccc3)cc2)C(C)(c2ccccc2)C1=O (mixture of isomers) [Example 1, ((RS)-2-((RS)-4-Phenyl-3-(4-(3-phenylureido)benzyl)-4-methyl-2,5-dioxoimidazolidin-1-yl)-2-(2-methylpropyl)acetyl)-L-aspartyl-L-phenylglycine]
23 | 3 | CC(C)C[C@@H](C(=O)N[C@@H](CC(=O)O)c1ccccc1)N1C(=O)N(Cc2ccc(NC(=O)Nc3ccccc3)cc2)C(C)(C)C1=O [Example 19]
24 | 4 | Cc1ccccc1NC(=O)Nc1ccc(CN2C(=O)N(CC(=O)N(C)[C@@H](CC(=O)O)C(=O)NC3C4CC5CC(C4)CC3C5)C(=O)C2(C)C)cc1 (stereo partly drawn) [Example 22, (2-(4,4-Dimethyl-3-(4-(3-(2-methylphenyl)ureido)benzyl)-2,5-dioxoimidazolidin-1-yl)-acetyl)-N-methyl-L-(2-adamantyl)aspartamide]
25 | 7 | Cc1ccccc1NC(=O)Nc1ccc(CN2C(=O)N(CC(=O)N[C@@H](CC(=O)O)c3ccc4c(c3)OCO4)C(=O)C2(C)C)cc1 [Example 93, (S)-3-(2-(4,4-Dimethyl-3-(4-(3-(2-methylphenyl)ureido)benzyl)-2,5-dioxoimidazolidin-1-yl)acetylamino)-3-(3,4-methylenedioxyphenyl)propionic Acid]

Source: patent US6521654B2, “Substituted imidazolidine derivatives, their preparation, their use and pharmaceutical preparations including them” (Aventis Pharma Deutschland GmbH, priority 1997, dated 2003)
